Several values for one entry are separate records, joined by “and”; a condition that tells them apart may be missing. Equal values may be shown once. Toxic doses and inconclusive results are not listed. Rule as the data show it: active = T/C of 150% or more; inactive = T/C below 125%.
Tested on: L1210 leukemia ip in BDF1 mice, survival T/C
Assay: NCI In Vivo Anticancer Drug Screen. Data for tumor model L1210 Leukemia (intraperitoneal) in B6D2F1 (BDF1) mice
Conditions: endpoint: mean survival time, higher = longer survival
How it was run: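 Transplanted-tumor mice were given test agent; controls received vehicle only. Survival readings from the two groups were divided (treated over control).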

[1] = dose: 200.0 mg/kg/injection, schedule: Q04DX002 (ip), vehicle: gum acacia
[2] = dose: 100.0 mg/kg/injection, schedule: Q04DX002 (ip), vehicle: Klucel (hydroxypropylcellulose) (HPC)
[3] = dose: 200.0 mg/kg/injection, schedule: Q04DX002 (ip), vehicle: Klucel (hydroxypropylcellulose) (HPC)
[4] = dose: 400.0 mg/kg/injection, schedule: Q04DX002 (ip), vehicle: Klucel (hydroxypropylcellulose) (HPC)
[5] = dose: 100.0 mg/kg/injection, schedule: Q04DX003 (ip), vehicle: saline with Tween-80
[6] = dose: 200.0 mg/kg/injection, schedule: Q04DX003 (ip), vehicle: saline with Tween-80
[7] = dose: 400.0 mg/kg/injection, schedule: Q04DX003 (ip), vehicle: saline with Tween-80
[8] = dose: 100.0 mg/kg/injection, schedule: Q01DX009 (ip), vehicle: Klucel (hydroxypropylcellulose) (HPC)
[9] = dose: 200.0 mg/kg/injection, schedule: Q01DX009 (ip), vehicle: Klucel (hydroxypropylcellulose) (HPC)
[10] = dose: 400.0 mg/kg/injection, schedule: Q01DX009 (ip), vehicle: Klucel (hydroxypropylcellulose) (HPC)
[11] = dose: 100.0 mg/kg/injection, schedule: Q04DX003 (ip), vehicle: Klucel (hydroxypropylcellulose) (HPC)
[12] = dose: 200.0 mg/kg/injection, schedule: Q04DX003 (ip), vehicle: Klucel (hydroxypropylcellulose) (HPC)
[13] = dose: 400.0 mg/kg/injection, schedule: Q04DX003 (ip), vehicle: Klucel (hydroxypropylcellulose) (HPC)
[14] = dose: 100.0 mg/kg/injection, schedule: Q01DX001 (ip), vehicle: saline
[15] = dose: 200.0 mg/kg/injection, schedule: Q01DX001 (ip), vehicle: saline
[16] = dose: 400.0 mg/kg/injection, schedule: Q01DX001 (ip), vehicle: saline
[17] = dose: 100.0 mg/kg/injection, schedule: Q04DX002 (ip), vehicle: saline with Tween-80
[18] = dose: 200.0 mg/kg/injection, schedule: Q04DX002 (ip), vehicle: saline with Tween-80
[19] = dose: 400.0 mg/kg/injection, schedule: Q04DX002 (ip), vehicle: saline with Tween-80

Measured: T/C

Clc1cc2nsnc2c2ccccc12
inactive: [1] 95 % of control

CCCCCCCCCCCCN=C(N)N/C(N)=N/S(=O)(=O)c1ccc(OCCCCC)cc1
inactive: [2] 100 % of control | [3] 95 % of control | [4] 95 % of control

CCOC(=O)c1c[nH]n2c(=S)ncnc12
inactive: dose: 100.0 mg/kg/injection, schedule: Q01DX009 (ip), vehicle: saline with Tween-80 96 % of control | [5] 98 % of control | dose: 200.0 mg/kg/injection, schedule: Q01DX009 (ip), vehicle: saline with Tween-80 97 % of control | [6] 104 % of control | [7] 102 % of control

COc1cc(C(=O)NNC(=O)c2cccc(C)c2)cc(OC)c1OC
inactive: [8] 100 % of control | [9] 95 % of control | [10] 105 % of control

Nc1nc2c(c(=O)[nH]1)N=C(CNc1ccc(C(=O)NC(CCC(=O)O)C(=O)O)cc1)CN2 (centres undefined)
inactive: dose: 2.0 mg/kg/injection, schedule: Q01DX009 (ip), vehicle: sodium bicarbonate 109 % of control | dose: 4.0 mg/kg/injection, schedule: Q01DX009 (ip), vehicle: sodium bicarbonate 115 % of control | dose: 8.0 mg/kg/injection, schedule: Q01DX009 (ip), vehicle: sodium bicarbonate 116 % of control | dose: 16.0 mg/kg/injection, schedule: Q01DX009 (ip), vehicle: sodium bicarbonate 115 % of control

O=C1CC2C=CCC12 (centres undefined)
inactive: [5] 95 % of control | [6] 93 % of control | [7] 93 % of control

CC1C(=O)C(=O)C(CCc2ccccc2)C1=O (centres undefined)
inactive: [5] 97 % of control | [6] 97 % of control | [7] 97 % of control

CNc1ccccc1C(=O)N/N=C/c1ccccc1Cl
inactive: [2] 108 % of control | [3] 93 % of control | [4] 86 % of control

N#Cc1ccccc1N=NNc1ccc([N+](=O)[O-])cc1
inactive: dose: 75.0 mg/kg/injection, schedule: Q01DX001 (ip), vehicle: saline 108 % of control | dose: 150.0 mg/kg/injection, schedule: Q01DX001 (ip), vehicle: saline 104 % of control | dose: 300.0 mg/kg/injection, schedule: Q01DX001 (ip), vehicle: saline 98 % of control

Nc1ncnc2c1ncn2C1C=COC(CO)C1O (centres undefined)
inactive: dose: 100.0 mg/kg/injection, schedule: Q01DX005 (ip), vehicle: saline 100 % of control | dose: 200.0 mg/kg/injection, schedule: Q01DX005 (ip), vehicle: saline 97 % of control

CCOC(=O)c1cnc(SC)nc1NC(C(=O)OCC)C(=O)OCC
inactive: [11] 93 % of control | [12] 100 % of control | [13] 95 % of control

O=C(Nc1ccc(F)cc1)Nc1nccs1
inactive: dose: 100.0 mg/kg/injection, schedule: Q01DX001 (ip), vehicle: Klucel (hydroxypropylcellulose) (HPC) 88 % of control | [8] 98 % of control and 102 % of control | [11] 102 % of control | dose: 200.0 mg/kg/injection, schedule: Q01DX001 (ip), vehicle: Klucel (hydroxypropylcellulose) (HPC) 96 % of control | [9] 101 % of control and 117 % of control | [12] 111 % of control | dose: 400.0 mg/kg/injection, schedule: Q01DX001 (ip), vehicle: Klucel (hydroxypropylcellulose) (HPC) 93 % of control | [10] 98 % of control | [13] 113 % of control

COc1cc(C=C(C#N)C#N)ccc1OC(=O)c1cc(OC)c(OC)c(OC)c1
inactive: dose: 100.0 mg/kg/injection, schedule: Q04DX002 (ip), vehicle: gum acacia 98 % of control | [1] 92 % of control | dose: 400.0 mg/kg/injection, schedule: Q04DX002 (ip), vehicle: gum acacia 92 % of control

Cn1c(CC(O)(C(F)(F)F)C(F)(F)F)c(C(O)(C(F)(F)F)C(F)(F)F)c2ccccc21
inactive: dose: 5.0 mg/kg/injection, schedule: Q01DX009 (ip), vehicle: saline with Tween-80 100 % of control | dose: 10.0 mg/kg/injection, schedule: Q01DX009 (ip), vehicle: saline with Tween-80 94 % of control

NC(=S)N/N=C1\CCCC\C1=N/NC(N)=S
inactive: dose: 50.0 mg/kg/injection, schedule: Q01DX001 (ip), vehicle: carboxymethylcellulose (CMC) 101 % of control | dose: 100.0 mg/kg/injection, schedule: Q01DX001 (ip), vehicle: carboxymethylcellulose (CMC) 109 % of control | dose: 200.0 mg/kg/injection, schedule: Q01DX001 (ip), vehicle: carboxymethylcellulose (CMC) 101 % of control | dose: 400.0 mg/kg/injection, schedule: Q01DX001 (ip), vehicle: carboxymethylcellulose (CMC) 104 % of control

CCOC(=O)CN1C(=O)C(Cl)=C(Cl)C1=O
inactive: dose: 3.12 mg/kg/injection, schedule: Q01DX009 (ip), vehicle: saline with Tween-80 98 % of control | dose: 6.25 mg/kg/injection, schedule: Q01DX009 (ip), vehicle: saline with Tween-80 98 % of control | dose: 12.5 mg/kg/injection, schedule: Q01DX009 (ip), vehicle: saline with Tween-80 96 % of control

O=S(=O)(CCCCl)N1CCOCC1
inactive: [14] 102 % of control | dose: 100.0 mg/kg/injection, schedule: Q04DX003 (ip), vehicle: saline 97 % of control | [15] 106 % of control | dose: 200.0 mg/kg/injection, schedule: Q04DX003 (ip), vehicle: saline 106 % of control | [16] 100 % of control | dose: 400.0 mg/kg/injection, schedule: Q04DX003 (ip), vehicle: saline 95 % of control

CN1CCC(C[CH2][Sn]([c]2ccccc2)([c]2ccccc2)[c]2ccccc2)CC1
inactive: dose: 25.0 mg/kg/injection, schedule: Q04DX002 (ip), vehicle: saline with Tween-80 100 % of control

Cc1ccc(NC(=O)OCC(F)(F)C(F)(F)C(F)(F)F)c(NC(=O)OCC(F)(F)C(F)(F)C(F)(F)F)c1
inactive: [17] 98 % of control | [18] 98 % of control | [19] 112 % of control

COC(=O)c1ccc2c3c(ccc(C(=O)OC)c13)C=C2
inactive: [14] 102 % of control | [15] 94 % of control | [16] 95 % of control

O=C(O)c1ccc(COc2ccc([N+](=O)[O-])cc2Cl)cc1
inactive: dose: 100.0 mg/kg/injection, schedule: Q01DX009 (ip), vehicle: saline sonified 96 % of control | [5] 96 % of control | dose: 200.0 mg/kg/injection, schedule: Q01DX009 (ip), vehicle: saline sonified 97 % of control | [6] 96 % of control | [7] 101 % of control

COC1OC(COS(=O)(=O)c2ccc(C)cc2)C(OS(=O)(=O)c2ccc(C)cc2)C(OS(=O)(=O)c2ccc(C)cc2)C1OS(=O)(=O)c1ccc(C)cc1 (centres undefined)
inactive: [5] 91 % of control | [6] 91 % of control | [7] 90 % of control

CCOC(=O)CNc1ccc(Cl)c(C)c1
inactive: [2] 111 % of control | [3] 107 % of control | [4] 111 % of control

C1CN2CN1CN1CCN(C1)C2
inactive: dose: 12.5 mg/kg/injection, schedule: Q01DX009 (ip), vehicle: saline 101 % of control | dose: 25.0 mg/kg/injection, schedule: Q01DX009 (ip), vehicle: saline 108 % of control | dose: 50.0 mg/kg/injection, schedule: Q01DX009 (ip), vehicle: saline 114 % of control

CC(=O)c1ccc(CCC(=O)O)cc1
inactive: [17] 94 % of control | [18] 98 % of control | [19] 90 % of control
